Assay results published in PMC11432330, “Novel Drug-like HsrA Inhibitors Exhibit Potent Narrow-Spectrum Antimicrobial Activities against Helicobacter pylori” (International Journal of Molecular Sciences, 2024).
In brackets after ≈: the same amount, converted by molar mass. Like-named read-outs stand apart in the source and are kept apart here.

Key:
HsrA = HsrA (Helicobacter pylori, UniProt O25684); test: Isothermal titration calorimetry (ITC) with HsrA; format: binding; settings: for ΔG: absolute error 0.1; for ΔH: absolute error 0.4
Sequence of HsrA (O25684 entry or part of it): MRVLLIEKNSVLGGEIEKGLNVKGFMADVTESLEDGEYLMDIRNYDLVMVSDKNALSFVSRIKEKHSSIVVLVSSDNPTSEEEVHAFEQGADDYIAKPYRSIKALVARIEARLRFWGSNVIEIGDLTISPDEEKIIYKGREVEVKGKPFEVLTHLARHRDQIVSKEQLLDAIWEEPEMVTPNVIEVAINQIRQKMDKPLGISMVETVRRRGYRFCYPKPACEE
Experimental: Molecular interactions of the selected ligands with proteins HsrA or CosR were studied by isothermal titration calorimetry (ITC), as previously described. Titrations were assessed in a high-sensitivity MicroCal Auto-iTC200 calorimeter (Malvern Panalytical, Malvern, UK). Experiments were carried out at 25 °C in freshly prepared buffer containing 50 mM Tris-HCl [pH 8], 150 mM NaCl, 10% glycerol, and 1% DMSO. A 20 µM solution of protein was located in the calorimetric cell. Then, a sequence of 19 injections of 2 µL volume each with a 200 µM solution of the corresponding ligand was programmed with a time spacing of 150 s, a stirring speed of 750 rpm, and a reference power of 10 µcal/s in the sample cell. Thermodynamic properties such as binding stoichiometry, dissociation constants, and binding enthalpies were calculated by nonlinear least-squares regression data analysis using Origin 7.0 software.

E. faecalis ATCC 29212 = test: MIC/MBC according to EUCAST guidelines; format: cell-based; settings: Enterococcus faecalis, ATCC29212
Experimental: (§1) The antimicrobial activities of the selected compounds against several Gram-negative and Gran-positive representative species of normal human microbiota were determined according to the EUCAST guidelines. Briefly, standardized inoculums (0.5 McFarland) were freshly prepared from overnight Mueller–Hinton agar plates of reference strains E. coli ATCC 25922, K. pneumonia ATCC 700603, E. faecalis ATCC 29212, S. aureus ATCC 29213, S. epidermidis ATCC 12228, and S. agalactiae ATCC 12386. Next, bacterial suspensions adjusted to 5 × 10^5 CFU/mL in Mueller–Hinton broth were exposed to a range of concentrations from 64 to 0.031 mg/L of the selected compounds. DMSO and conventional antibiotics LVX and AMP were included as controls. […] Experiments were performed twice in triplicate.

S. agalactiae ATCC 12386 = test: MIC/MBC according to EUCAST guidelines; format: cell-based; settings: Streptococcus agalactiae, ATCC12386
Experimental: as §1

[1] = tested on: S. epidermidis ATCC 12228; test: MIC/MBC according to EUCAST guidelines; format: cell-based; settings: Staphylococcus epidermidis, ATCC12228
Experimental: as §1

E. coli ATCC 25922 = test: MIC/MBC according to EUCAST guidelines; format: cell-based; settings: Escherichia coli, ATCC25922
Experimental: as §1

S. aureus ATCC 29213 = test: MIC/MBC according to EUCAST guidelines; format: cell-based; settings: Staphylococcus aureus, ATCC29213
Experimental: as §1

HeLa cells = test: Cytotoxicity, PrestoBlue cell viability assay; format: cell-based; settings: HeLa cells, 8 mg/L, 24 h
Experimental: (§2) The in vitro toxicity of the selected HsrA inhibitors was determined on HeLa cells by the PrestoBlue^TM assay, as previously described. Briefly, cells were cultured at 37 °C with 5% CO2 in Dulbecco’s modified Eagle’s medium containing 10% fetal bovine serum, 1% L-GlutaMAX^TM solution (Thermo Fisher Scientific), and 1% penicillin/streptomycin. When 80% confluence was achieved, cells were detached, counted, seeded in 96-well microplates at a density of 10,000 cells per well, and allowed to adhere for 24 h. Next, the mammalian cells were exposed to selected compounds at a range of 0.125 to 128 mg/L. After 24 h of exposure, the cell viability was measured with the PrestoBlue^TM cell viability reagent (Thermo Fisher Scientific), according to the manufacturer’s instructions. Experiments were performed twice in triplicate. The 50% cytotoxic concentration (CC50) of each compound was calculated by regression analysis using Microsoft Excel. Therapeutic index (TI) values were calculated as the ratio of the CC50 to the higher MIC observed for each compound [111].

[2] = Cytotoxicity, PrestoBlue cell viability assay; format: cell-based; settings: human; HeLa cells, 24 h exposure; read-out: CC50 (50% cytotoxic concentration)
Experimental: as §2

H. pylori ATCC 700392 = test: Checkerboard assay with first-line antibiotics; format: cell-based, Helicobacter pylori
Experimental: Potential synergisms between the selected HsrA inhibitors and first-line antibiotics were evaluated by using checkerboard assays, as previous described. Briefly, the antimicrobials to be tested were twofold serially diluted in BHI + FBS using independent sterile microtiter plates. Then, concentration gradients from two antimicrobials were aseptically mixed at equal volumes in a new microtiter plate, resulting in a matrix of 77 unique combinations of both compounds. Next, freshly prepared inoculum of H. pylori ATCC 700392 adjusted at 2 × 10^6 CFU/mL in BHI+ FBS were added to all wells, and plates were incubated for 72 h at 37 °C under microaerophilic conditions. […] The fractional inhibitory concentration index (FICI) for each antimicrobial combination was calculated as previously described. Values of FICI ≤ 0.5, 0.5 < FICI ≤ 1, 1 < FICI ≤ 4, and FICI > 4 were considered as indicative of synergistic, additive, neutral, or antagonist interactions, respectively.

H. pylori = test: MIC across the four H. pylori strains tested (text summaries); format: cell-based, Helicobacter pylori; settings: for MIC: Helicobacter pylori
Experimental: The antimicrobial activity of the HsrA inhibitors was evaluated by the determination of the minimal inhibitory concentration (MIC) against four different strains of H. pylori: ATCC 700392 (aka 26695), ATCC 43504 (MTZ-resistant reference strain), ATCC 700684 (CLR-resistant reference strain), and Donostia 2 (LVX-resistant clinical isolate). The MICs were determined by the broth microdilution method, as previously described. Briefly, H. pylori strains were grown in blood agar at 37 °C for 72 h under microaerobic conditions. Fresh inoculums adjusted at OD600 = 0.01 [~10^6 colony forming units (CFU) per mL] in BHI broth supplemented with 4% fetal bovine serum (BHI + FBS) were prepared and immediately exposed to final concentrations between 64 and 0.031 mg/L of each compound of interest. The compound solvent (DMSO) as well as conventional antibiotics (MTZ, CLR, LVX) were included as controls. […] Each experiment was performed twice in triplicate. The MIC and MBC values of the selected compounds against C. jejuni ATCC 33560 were determined by using the same method and culture conditions described for the H. pylori strains.

[3] = in combination with CLR (clarithromycin)
[4] = in combination with LVX (levofloxacin)
[5] = in combination with MTZ (metronidazole)
[6] = four strains incl. CLR-, MTZ- and LVX-resistant, read-out: MIC against all H. pylori strains tested

SMILES | n (stoichiometry) (HsrA; ITC, 25 °C, pH 8) | ΔG (HsrA; ITC, 25 °C) | ΔH (HsrA; ITC, 25 °C) | MBC (E. faecalis ATCC 29212) | MIC (E. faecalis ATCC 29212) | MBC (S. agalactiae ATCC 12386) | MIC (S. agalactiae ATCC 12386) | MBC [1] | MIC [1] | MBC (E. coli ATCC 25922) | MIC (E. coli ATCC 25922) | MBC (S. aureus ATCC 29213) | MIC (S. aureus ATCC 29213) | Cytotoxicity at 8 mg/L (HeLa cells) | CC50 at 24 h [2] | FICI (H. pylori ATCC 700392; [3]) | FICantibiotic (H. pylori ATCC 700392; [3]) | FICinhibitor (H. pylori ATCC 700392; [3]) | FICI (H. pylori ATCC 700392; [4]) | FICantibiotic (H. pylori ATCC 700392; [4]) | further results
CSc1cccc(NC(=S)NCCNc2c([N+](=O)[O-])cc(C(F)(F)F)cc2[N+](=O)[O-])c1 [Ligand IV] | 0.9 | –7.4 kcal/mol | –1.6 kcal/mol | > 64 µg/mL | > 64 µg/mL | > 64 µg/mL | > 64 µg/mL | > 64 µg/mL | > 64 µg/mL | > 64 µg/mL | > 64 µg/mL | > 64 µg/mL | > 64 µg/mL | completely safe | 135 µg/mL (≈ 284 µM) | 2 | 1 | 1 | 2 | 1 | Kd (HsrA): 3.9 µM; FICinhibitor (H. pylori ATCC 700392; [4]): 1; FICI (H. pylori ATCC 700392; [5]): 2; FICantibiotic (H. pylori ATCC 700392; [5]): 1; FICinhibitor (H. pylori ATCC 700392; [5]): 1; MIC (H. pylori; [6]): 0.031 to 4 µg/mL (≈ 0.0652 to 8.41 µM)
NC(=NOC(=O)Nc1ccc(Cl)cc1)c1csc([N+](=O)[O-])c1 [Ligand V, N′-{[(4-chloroanilino)carbonyl]}oxy-5-nitrothiophene-3-carboximidamide] | 1.0 | –6.7 kcal/mol | –1.9 kcal/mol | > 64 µg/mL | > 64 µg/mL | > 64 µg/mL | > 64 µg/mL | > 64 µg/mL | > 64 µg/mL | > 64 µg/mL | > 64 µg/mL | > 64 µg/mL | > 64 µg/mL | completely safe | 183 µg/mL (≈ 538 µM) | 0.56 | 0.5 | 0.06 | 2 | 1 | Affinity to HsrA relative to ligand XII (HsrA; ITC): > 3 fold; Kd (HsrA; ITC, 25 °C, pH 8, relative error 15%, read-out: Kd): 13 µM; FICinhibitor (H. pylori ATCC 700392; [4]): 1; Interaction (H. pylori ATCC 700392; [4]): Neutral (no interaction or neutral (FICI > 1 to ≤4)); FICI (H. pylori ATCC 700392; [5]): 0.625; FICantibiotic (H. pylori ATCC 700392; [5]): 0.125; FICinhibitor (H. pylori ATCC 700392; [5]): 0.5; MIC (H. pylori; read-out: MIC against all H. pylori strains tested, four strains incl. CLR-, MTZ- and LVX-resistant): 0.031 to 0.125 µg/mL (≈ 0.091 to 0.367 µM); MIC (H. pylori; [6]): 0.031 to 4 µg/mL (≈ 0.091 to 11.7 µM); Antimicrobial potency relative to ligand XII (H. pylori; same H. pylori strains): at least 4 fold; Antimicrobial potency relative to metronidazole (H. pylori; same H. pylori strains): more than 10 fold
